Tested on: HOP-62 complex spheroids with HUVEC/MSC, viability
Assay: Anticancer human tumor HOP-62 cell line growth inhibition [RAS];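 also: spheroids exposed to agents for seven days before readout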;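 as to viability, T/C: 100% = DMSO vehicle control viability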
Conditions: for IC50: curve of first compound; for viability, T/C: stronger effect = lower value
How it was run: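 Agents were tested in combination matrices in half-log decrements from a top concentration at or near clinical Cmax (10 microM if undetermined). Targets were multi-cell spheroids of tumour lines plus HUVEC and MSC stromal cells.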

[1] = second compound 0.00316 µM, first compound 0.0316 µM
[2] = second compound 0.00316 µM, first compound 0.1 µM
[3] = second compound 0.00316 µM, first compound 0.316 µM
[4] = second compound 0.00316 µM, first compound 1 µM
[5] = second compound 0.00316 µM, first compound 3.16 µM
[6] = second compound 0.00316 µM, first compound 10 µM
[7] = second compound 0.01 µM, first compound 0.0316 µM
[8] = second compound 0.01 µM, first compound 0.1 µM
[9] = second compound 0.01 µM, first compound 0.316 µM
[10] = second compound 0.01 µM, first compound 1 µM
[11] = second compound 0.01 µM, first compound 3.16 µM
[12] = second compound 0.01 µM, first compound 10 µM
[13] = second compound 0.0316 µM, first compound 0.0316 µM
[14] = second compound 0.0316 µM, first compound 0.1 µM
[15] = second compound 0.0316 µM, first compound 0.316 µM
[16] = second compound 0.0316 µM, first compound 1 µM
[17] = second compound 0.0316 µM, first compound 3.16 µM
[18] = second compound 0.0316 µM, first compound 10 µM
[19] = second compound 0.1 µM, first compound 0.0316 µM
[20] = second compound 0.1 µM, first compound 0.1 µM
[21] = second compound 0.1 µM, first compound 0.316 µM
[22] = second compound 0.1 µM, first compound 1 µM
[23] = second compound 0.1 µM, first compound 3.16 µM
[24] = second compound 0.1 µM, first compound 10 µM
[25] = second compound 0.316 µM, first compound 0.0316 µM
[26] = second compound 0.316 µM, first compound 0.1 µM
[27] = second compound 0.316 µM, first compound 0.316 µM
[28] = second compound 0.316 µM, first compound 1 µM
[29] = second compound 0.316 µM, first compound 3.16 µM
[30] = second compound 0.316 µM, first compound 10 µM
[31] = second compound 1 µM, first compound 0.0316 µM
[32] = second compound 1 µM, first compound 0.1 µM
[33] = second compound 1 µM, first compound 0.316 µM
[34] = second compound 1 µM, first compound 1 µM
[35] = second compound 1 µM, first compound 3.16 µM
[36] = second compound 1 µM, first compound 10 µM
[37] = second compound 3.16 µM, first compound 0.0316 µM
[38] = second compound 3.16 µM, first compound 0.1 µM
[39] = second compound 3.16 µM, first compound 0.316 µM
[40] = second compound 3.16 µM, first compound 1 µM
[41] = second compound 3.16 µM, first compound 3.16 µM
[42] = second compound 3.16 µM, first compound 10 µM
[43] = second compound 10 µM, first compound 0.0316 µM
[44] = second compound 10 µM, first compound 0.1 µM
[45] = second compound 10 µM, first compound 0.316 µM
[46] = second compound 10 µM, first compound 1 µM
[47] = second compound 10 µM, first compound 3.16 µM
[48] = second compound 10 µM, first compound 10 µM

## C[C@@H](NC(=O)c1ncnc(N)c1Cl)c1ncc(C(=O)Nc2cc(C(F)(F)F)c(Cl)cn2)s1 + C=CC(=O)N1CCN(c2nc(OCC3CCCN3C)nc3c(F)c(-c4nc(N)cc(C)c4C(F)(F)F)c(Cl)cc23)C(C)C1
Second compound 0.00316 µM
  IC50: > 10000 nM
Second compound 0.01 µM
  IC50: 8690 nM
Second compound 0.0316 µM
  IC50: 4320 nM
Second compound 0.1 µM
  IC50: 7860 nM
Second compound 0.316 µM
  IC50: > 10000 nM
Second compound 1 µM
  IC50: > 10000 nM
[1]
  viability, T/C: 88.6%
[2]
  viability, T/C: 80.2%
[3]
  viability, T/C: 80.9%
[4]
  viability, T/C: 83.9%
[5]
  viability, T/C: 71.8%
[6]
  viability, T/C: 53.3%
[7]
  viability, T/C: 74.8%
[8]
  viability, T/C: 67%
[9]
  viability, T/C: 69.7%
[10]
  viability, T/C: 67.1%
[11]
  viability, T/C: 63.4%
[12]
  viability, T/C: 48.1%
[13]
  viability, T/C: 69.1%
[14]
  viability, T/C: 67%
[15]
  viability, T/C: 71.1%
[16]
  viability, T/C: 70%
[17]
  viability, T/C: 52.2%
[18]
  viability, T/C: 43.9%
[19]
  viability, T/C: 69.2%
[20]
  viability, T/C: 68.5%
[21]
  viability, T/C: 64%
[22]
  viability, T/C: 70.3%
[23]
  viability, T/C: 58%
[24]
  viability, T/C: 47.6%
[25]
  viability, T/C: 67.5%
[26]
  viability, T/C: 67%
[27]
  viability, T/C: 69.8%
[28]
  viability, T/C: 64.7%
[29]
  viability, T/C: 57.7%
[30]
  viability, T/C: 49.2%
[31]
  viability, T/C: 66.7%
[32]
  viability, T/C: 63.3%
[33]
  viability, T/C: 64.1%
[34]
  viability, T/C: 63.6%
[35]
  viability, T/C: 55.9%
[36]
  viability, T/C: 52.4%

## CC(C)NCC(C(=O)N1CCN(c2ncnc3c2C(C)CC3O)CC1)c1ccc(Cl)cc1 (stereo unspecified) + C#Cc1c(F)ccc2cc(O)cc(-c3ncc4c(N5CC6CCC(C5)N6)nc(OCC56CCCN5CC(F)C6)nc4c3F)c12
Second compound 0.0316 µM
  IC50: 2440 nM
Second compound 0.1 µM
  IC50: 2810 nM
Second compound 0.316 µM
  IC50: 2730 nM
Second compound 1 µM
  IC50: 1720 nM
Second compound 3.16 µM
  IC50: 676 nM
Second compound 10 µM
  IC50: 62.1 nM
[13]
  viability, T/C: 105%
[14]
  viability, T/C: 113%
[15]
  viability, T/C: 92.2%
[16]
  viability, T/C: 71.2%
[17]
  viability, T/C: 44.6%
[18]
  viability, T/C: 28.3%
[19]
  viability, T/C: 112%
[20]
  viability, T/C: 105%
[21]
  viability, T/C: 99.2%
[22]
  viability, T/C: 70%
[23]
  viability, T/C: 49.8%
[24]
  viability, T/C: 28.3%
[25]
  viability, T/C: 105%
[26]
  viability, T/C: 104%
[27]
  viability, T/C: 96.3%
[28]
  viability, T/C: 73.1%
[29]
  viability, T/C: 47.5%
[30]
  viability, T/C: 27%
[31]
  viability, T/C: 108%
[32]
  viability, T/C: 100%
[33]
  viability, T/C: 86.5%
[34]
  viability, T/C: 59.9%
[35]
  viability, T/C: 38.5%
[36]
  viability, T/C: 23.5%
[37]
  viability, T/C: 72.2%
[38]
  viability, T/C: 75%
[39]
  viability, T/C: 63.9%
[40]
  viability, T/C: 41.6%
[41]
  viability, T/C: 26.1%
[42]
  viability, T/C: 16.1%
[43]
  viability, T/C: 54.3%
[44]
  viability, T/C: 47%
[45]
  viability, T/C: 35.2%
[46]
  viability, T/C: 23%
[47]
  viability, T/C: 13.7%
[48]
  viability, T/C: 9.15%

## CC1(O)CCCC1n1c(=O)c(C(F)F)cc2cnc(NC3CCN(S(C)(=O)=O)CC3)nc21 (stereo unspecified) + C=CC(=O)N1CCN(c2nc(OCC3CCCN3C)nc3c(F)c(-c4nc(N)cc(C)c4C(F)(F)F)c(Cl)cc23)C(C)C1
Second compound 0.00316 µM
  IC50: 140 nM
Second compound 0.01 µM
  IC50: 94.8 nM
Second compound 0.0316 µM
  IC50: 40.3 nM
Second compound 0.1 µM
  IC50: 81.2 nM
Second compound 0.316 µM
  IC50: < 31.6 nM
Second compound 1 µM
  IC50: 55.7 nM
[1]
  viability, T/C: 64%
[2]
  viability, T/C: 47.8%
[3]
  viability, T/C: 38.4%
[4]
  viability, T/C: 35.6%
[5]
  viability, T/C: 32.3%
[6]
  viability, T/C: 1.76%
[7]
  viability, T/C: 66.3%
[8]
  viability, T/C: 43.9%
[9]
  viability, T/C: 28.7%
[10]
  viability, T/C: 34%
[11]
  viability, T/C: 27.7%
[12]
  viability, T/C: 0.91%
[13]
  viability, T/C: 55.5%
[14]
  viability, T/C: 39.8%
[15]
  viability, T/C: 29.9%
[16]
  viability, T/C: 28.3%
[17]
  viability, T/C: 22.9%
[18]
  viability, T/C: 0.75%
[19]
  viability, T/C: 66.5%
[20]
  viability, T/C: 40%
[21]
  viability, T/C: 30.1%
[22]
  viability, T/C: 30%
[23]
  viability, T/C: 29.5%
[24]
  viability, T/C: 0.8%
[25]
  viability, T/C: 53.6%
[26]
  viability, T/C: 37.6%
[27]
  viability, T/C: 30.6%
[28]
  viability, T/C: 32.6%
[29]
  viability, T/C: 21.9%
[30]
  viability, T/C: 0.96%
[31]
  viability, T/C: 59.4%
[32]
  viability, T/C: 39.4%
[33]
  viability, T/C: 29.9%
[34]
  viability, T/C: 27.2%
[35]
  viability, T/C: 25.7%
[36]
  viability, T/C: 1.08%

## NC1c2ccccc2OC12CCN(c1cnc3c(N4CCCc5ncccc54)n[nH]c3n1)CC2 (stereo unspecified) + C#Cc1c(F)ccc2cc(O)cc(-c3ncc4c(N5CC6CCC(C5)N6)nc(OCC56CCCN5CC(F)C6)nc4c3F)c12
Second compound 0.0316 µM
  IC50: 1820 nM
Second compound 0.1 µM
  IC50: 772 nM
Second compound 0.316 µM
  IC50: 330 nM
Second compound 1 µM
  IC50: 71.1 nM
Second compound 3.16 µM
  IC50: < 31.6 nM
Second compound 10 µM
  IC50: < 31.6 nM
[13]
  viability, T/C: 103%
[14]
  viability, T/C: 80.8%
[15]
  viability, T/C: 73.7%
[16]
  viability, T/C: 57.2%
[17]
  viability, T/C: 45.7%
[18]
  viability, T/C: 26.6%
[19]
  viability, T/C: 92.4%
[20]
  viability, T/C: 91.4%
[21]
  viability, T/C: 61.5%
[22]
  viability, T/C: 49.9%
[23]
  viability, T/C: 28.6%
[24]
  viability, T/C: 27.1%
[25]
  viability, T/C: 90.9%
[26]
  viability, T/C: 76.7%
[27]
  viability, T/C: 49.8%
[28]
  viability, T/C: 29.9%
[29]
  viability, T/C: 22.3%
[30]
  viability, T/C: 15.1%
[31]
  viability, T/C: 60.2%
[32]
  viability, T/C: 45.7%
[33]
  viability, T/C: 29.7%
[34]
  viability, T/C: 19.3%
[35]
  viability, T/C: 13.8%
[36]
  viability, T/C: 12.7%
[37]
  viability, T/C: 40.9%
[38]
  viability, T/C: 20.9%
[39]
  viability, T/C: 15.6%
[40]
  viability, T/C: 11.8%
[41]
  viability, T/C: 10.8%
[42]
  viability, T/C: 12.2%
[43]
  viability, T/C: 16.2%
[44]
  viability, T/C: 11%
[45]
  viability, T/C: 7.6%
[46]
  viability, T/C: 8.99%
[47]
  viability, T/C: 8.52%
[48]
  viability, T/C: 17.5%

## CC(C)NCC(C(=O)N1CCN(c2ncnc3c2C(C)CC3O)CC1)c1ccc(Cl)cc1 (stereo unspecified)
Compound 0.0316 µM
  viability, T/C: 105% [middle of 4 runs]
Compound 0.1 µM
  viability, T/C: 105% [middle of 4 runs]
Compound 0.316 µM
  viability, T/C: 98.4% [middle of 4 runs]

Source: PubChem BioAssay AID2060892 (Molecular Pharmacology Branch, DTP, NCI, 2025)
